According to US8168592B2 (Amgen Inc., priority 2005, dated 2012):

Assays:
[1] = in vitro stability in 10% rat plasma, LC-MS/MS; format: in vitro ADME; settings: room temperature
Experimental: (§1) Consequently, the stability of select, non-PEGylated analogs was evaluated in vitro in the presence of 10% rat or human plasma. Briefly, samples of each peptide were diluted to 100 ng/ml into PBS containing 10% of rat or human plasma. Each sample was then incubated at room temperature and analyzed by LC-MS/MS to quantitate the intact peptide remaining at select time points over 6 hours.

[2] = in vitro stability in 10% human plasma, LC-MS/MS; format: in vitro ADME; settings: room temperature
Experimental: as §1

CGRP1 receptor = target: T1, CGRP1 receptor (Homo sapiens, UniProt O60894+Q16602); experiment: in vitro CGRP1 receptor mediated cAMP assay in SK-N-MC cells; format: cell-based
T1 construct: SK-N-MC cells express CRLR and RAMP1, which form CGRP1 receptor; endogenous in cells; host or cells: SK-N-MC human neuroblastoma cells
Outline: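 Human SK-N-MC neuroblastoma cells, which endogenously express CRLR/RAMP1, were plated two days before assay and preincubated in plasma-free medium for 15 minutes at room temperature. Cells were then lysed for 30 minutes at 37° C, and cAMP in the lysates was quantified by competitive cAMP-AP chemiluminescent ELISA.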

[3] = read-out: time at which 50% depleted
[4] = read-out: time at which 50% depleted / detectable
[5] = read-out: time at which 50% remains (converted)

T1 sequence (Q16602 23-461): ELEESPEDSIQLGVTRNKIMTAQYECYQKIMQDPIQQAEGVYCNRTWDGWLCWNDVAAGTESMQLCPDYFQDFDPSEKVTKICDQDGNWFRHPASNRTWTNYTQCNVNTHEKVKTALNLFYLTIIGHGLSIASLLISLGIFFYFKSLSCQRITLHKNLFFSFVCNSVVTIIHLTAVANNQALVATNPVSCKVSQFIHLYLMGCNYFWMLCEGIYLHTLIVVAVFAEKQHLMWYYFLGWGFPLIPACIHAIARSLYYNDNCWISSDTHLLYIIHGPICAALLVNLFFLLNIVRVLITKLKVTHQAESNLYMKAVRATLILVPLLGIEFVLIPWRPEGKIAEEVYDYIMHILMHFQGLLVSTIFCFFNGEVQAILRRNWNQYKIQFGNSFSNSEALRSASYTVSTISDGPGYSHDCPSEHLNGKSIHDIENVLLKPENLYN
T1 sequence (O60894 27-148): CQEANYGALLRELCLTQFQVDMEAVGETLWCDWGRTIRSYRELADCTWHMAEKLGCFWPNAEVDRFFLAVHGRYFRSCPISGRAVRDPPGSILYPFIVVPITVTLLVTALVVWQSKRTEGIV

| Compound | time at which about 10% of the starting concentration remains [1] | half-life at 100 ng/ml [1, 3] [min] | time at which about 10% of the starting concentration remains [2] | half-life at 100 ng/ml [2, 4] [min] | half-life at 100 ng/ml [1, 5] [min] | further results |
| --- | --- | --- | --- | --- | --- | --- |
| CC(=O)N[C@@H](Cc1c[nH]c2ccccc12)C(=O)N[C@H](C(=O)N[C@H](C(=O)N[C@@H](Cc1cnc[nH]1)C(=O)N[C@@H](CCCN=C(N)N)C(=O)N[C@@H](CC(C)C)C(=O)N[C@@H](C)C(=O)NCC(=O)N[C@@H](CC(C)C)C(=O)N[C@@H](CC(C)C)C(=O)N[C@@H](CO)C(=O)N[C@@H](CCCN=C(N)N)C(=O)N[C@@H](CO)C(=O)NCC(=O)NCC(=O)N[C@H](C(=O)N[C@H](C(=O)N[C@@H](CCCN=C(N)N)C(=O)N[C@@H](CCCCN)C(=O)N[C@@H](CC(N)=O)C(=O)N[C@@H](Cc1ccccc1)C(=O)N[C@H](C(=O)N1CCC[C@H]1C(=O)N[C@H](C(=O)N[C@@H](CC(=O)O)C(=O)N[C@H](C(=O)NCC(=O)N1CCC[C@H]1C(=O)N[C@@H](Cc1ccccc1)C(=O)N[C@@H](C)C(=O)N[C@@H](Cc1ccccc1)C(N)=O)C(C)C)[C@@H](C)O)C(C)C)C(C)C)C(C)C)[C@@H](C)O)C(C)C [SEQ ID NO:7] | ~2.5 h | ~45 | about 1 hours | < 30 | – | – |
| CC(=O)N[C@@H](Cc1c[nH]c2ccccc12)C(=O)N[C@H](C(=O)N[C@H](C(=O)N[C@@H](Cc1cnc[nH]1)C(=O)N[C@@H](CCCN=C(N)N)C(=O)N[C@@H](CC(C)C)C(=O)N[C@@H](C)C(=O)NCC(=O)N[C@@H](CC(C)C)C(=O)N[C@@H](CC(C)C)C(=O)N[C@@H](CO)C(=O)N[C@@H](CCCN=C(N)N)C(=O)N[C@@H](CO)C(=O)NCC(=O)NCC(=O)N[C@H](C(=O)N[C@H](C(=O)N[C@@H](CCCN=C(N)N)C(=O)N[C@@H](CCCCN)C(=O)N[C@@H](CC(N)=O)C(=O)N[C@@H](Cc1ccccc1)C(=O)N[C@H](C(=O)N1CCC[C@H]1C(=O)N[C@H](C(=O)N[C@@H](CC(=O)O)C(=O)N[C@H](C(=O)NCC(=O)N1CCC[C@H]1C(=O)N[C@@H](Cc1ccccc1)C(=O)N[C@@H](C)C(=O)N[C@@H](Cc1ccccc1)C(N)=O)C(C)C)[C@@H](C)O)C(C)C)C(C)C)C(C)C)[C@@H](C)O)C(C)C [compound 7] | – | – | – | – | – | % Remaining ([1]; 100 ng/ml, 0 h): 100.0%; remaining at 0.5 h, 100 ng/ml ([1]; 100 ng/ml, 0.5 h): 55.4%; remaining at 1 h, 100 ng/ml ([1]; 100 ng/ml, 1 h): 34.5%; remaining at 2 h, 100 ng/ml ([1]; 100 ng/ml, 2 h): 8%; remaining at 3 h, 100 ng/ml ([1]; 100 ng/ml, 3 h): 5.2%; remaining at 4 h, 100 ng/ml ([1]; 100 ng/ml, 4 h): 1.4%; remaining at 5 h, 100 ng/ml ([1]; 100 ng/ml, 5 h): 1.7%; remaining at 6 h, 100 ng/ml ([1]; 100 ng/ml, 6 h): 0.6%; IC50 (CGRP1 receptor; Table 3, unconjugated CGRP peptide analogs, n = 2-4, read-out: IC50): 0.13 nM |
| Ac-WVTHQLAGLLSQSGGVVRKNFVPTDVGPFAF-NH2 [SEQ ID NO:39] | about 5 hours | – | about 4 hours | – | ~90 | half-life at 100 ng/ml [2, 5]: ~60 min |

Now from value to compound, other results behind:

| time at which about 10% of the starting concentration remains [1] | half-life at 100 ng/ml [1, 3] [min] | time at which about 10% of the starting concentration remains [2] | half-life at 100 ng/ml [2, 4] [min] | half-life at 100 ng/ml [1, 5] [min] | Compound | further results |
| --- | --- | --- | --- | --- | --- | --- |
| about 5 hours | – | about 2 hours | ~30 | ~90 | CC(=O)N[C@@H](Cc1c[nH]c2ccccc12)C(=O)N[C@H](C(=O)N[C@H](C(=O)N[C@@H](Cc1cnc[nH]1)C(=O)N[C@@H](CCCCNC(=N)N)C(=O)N[C@@H](CC(C)C)C(=O)N[C@@H](C)C(=O)NCC(=O)N[C@@H](CC(C)C)C(=O)N[C@@H](CC(C)C)C(=O)N[C@@H](CO)C(=O)N[C@@H](CCCCNC(=N)N)C(=O)N[C@@H](CO)C(=O)NCC(=O)NCC(=O)N[C@H](C(=O)N[C@H](C(=O)N[C@@H](CCCNC(=N)N)C(=O)N[C@@H](CCCCN)C(=O)N[C@@H](CC(N)=O)C(=O)N[C@@H](Cc1ccccc1)C(=O)N[C@H](C(=O)N1CCC[C@H]1C(=O)N[C@H](C(=O)N[C@@H](CC(=O)O)C(=O)N[C@H](C(=O)NCC(=O)N1CCC[C@H]1C(=O)N[C@@H](Cc1ccccc1)C(=O)N[C@@H](C)C(=O)N[C@@H](Cc1ccccc1)C(N)=O)C(C)C)[C@@H](C)O)C(C)C)C(C)C)C(C)C)[C@@H](C)O)C(C)C [SEQ ID NO:25] | reduced antagonist activity relative to the single-substitution analogs (CGRP1 receptor; non-PEGylated double substitution at R11 and R18): about 5 fold |
| ~2.5 h | ~45 | about 1 hours | < 30 | – | Ac-WVTHRLAGLLSQSGGVVRKNFVPTDVGPFAF-NH2 [SEQ ID NO:37] | – |
